Experimental findings from publication PMC5540273, “Progress towards a public chemogenomic set for protein kinases and a call for contributions” (PLoS ONE, 2017) are described below.

Common to all, as to assay: KINOMEscan competition binding
Experiment [1] deals with T1, FLT3-autoinhibited (Homo sapiens, UniProt P36888).
T1 sequence (P36888 27-993): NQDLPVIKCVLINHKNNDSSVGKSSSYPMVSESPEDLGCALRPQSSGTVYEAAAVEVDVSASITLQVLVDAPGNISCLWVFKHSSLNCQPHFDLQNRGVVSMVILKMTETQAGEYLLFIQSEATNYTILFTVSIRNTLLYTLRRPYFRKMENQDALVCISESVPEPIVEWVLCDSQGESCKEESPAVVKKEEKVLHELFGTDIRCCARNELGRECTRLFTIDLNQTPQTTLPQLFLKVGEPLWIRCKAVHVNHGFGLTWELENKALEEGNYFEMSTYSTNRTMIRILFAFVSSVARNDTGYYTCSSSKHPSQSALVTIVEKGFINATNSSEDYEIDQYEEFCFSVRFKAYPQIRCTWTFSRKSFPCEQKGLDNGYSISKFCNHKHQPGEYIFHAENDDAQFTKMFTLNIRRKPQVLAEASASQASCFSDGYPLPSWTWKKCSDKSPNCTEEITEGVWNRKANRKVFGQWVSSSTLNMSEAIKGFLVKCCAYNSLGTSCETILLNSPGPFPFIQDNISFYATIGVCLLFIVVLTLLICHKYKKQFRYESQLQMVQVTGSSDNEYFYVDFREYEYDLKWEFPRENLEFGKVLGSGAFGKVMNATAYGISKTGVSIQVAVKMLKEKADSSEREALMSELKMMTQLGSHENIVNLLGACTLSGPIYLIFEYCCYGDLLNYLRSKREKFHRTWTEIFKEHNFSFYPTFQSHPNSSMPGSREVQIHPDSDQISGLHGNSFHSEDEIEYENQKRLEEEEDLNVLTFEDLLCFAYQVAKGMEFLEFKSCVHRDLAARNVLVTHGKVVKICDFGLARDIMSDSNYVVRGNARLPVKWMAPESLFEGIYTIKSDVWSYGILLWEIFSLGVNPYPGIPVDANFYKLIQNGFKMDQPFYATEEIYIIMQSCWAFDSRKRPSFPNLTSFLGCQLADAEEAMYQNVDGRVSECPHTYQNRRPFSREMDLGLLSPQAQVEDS
Conditions: read-out: %Inh FLT3-autoinhibited.

Experiment [2] concerns the target GSK3A (Homo sapiens, UniProt P49840). Conditions: read-out: %Inh GSK3A.
Experiment [3] deals with DYRK1B (Homo sapiens, UniProt Q9Y463). Conditions: read-out: %Inh DYRK1B.
DYRK1B, sequence (Q9Y463 whole entry): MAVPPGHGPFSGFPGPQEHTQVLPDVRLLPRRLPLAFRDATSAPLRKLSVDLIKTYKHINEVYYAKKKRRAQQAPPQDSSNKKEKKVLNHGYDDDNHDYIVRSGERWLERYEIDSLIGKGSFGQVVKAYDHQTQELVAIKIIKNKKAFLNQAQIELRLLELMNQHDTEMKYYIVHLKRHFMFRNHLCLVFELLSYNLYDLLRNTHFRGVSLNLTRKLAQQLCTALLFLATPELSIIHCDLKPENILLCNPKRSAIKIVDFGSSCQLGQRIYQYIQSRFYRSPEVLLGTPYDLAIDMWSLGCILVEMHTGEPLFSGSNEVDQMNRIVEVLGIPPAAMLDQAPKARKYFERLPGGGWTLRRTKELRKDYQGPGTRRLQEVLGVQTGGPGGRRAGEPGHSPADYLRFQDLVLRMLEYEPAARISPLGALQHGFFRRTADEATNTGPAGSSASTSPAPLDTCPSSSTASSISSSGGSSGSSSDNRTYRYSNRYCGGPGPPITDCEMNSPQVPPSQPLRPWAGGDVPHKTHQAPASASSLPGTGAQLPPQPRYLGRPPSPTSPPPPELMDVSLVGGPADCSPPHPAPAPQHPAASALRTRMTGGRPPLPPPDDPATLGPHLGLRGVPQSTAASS
The target of experiment [4] is LYN (Homo sapiens, UniProt P07948). The note with it: read-out: %Inh LYN.
LYN, sequence (P07948 whole entry): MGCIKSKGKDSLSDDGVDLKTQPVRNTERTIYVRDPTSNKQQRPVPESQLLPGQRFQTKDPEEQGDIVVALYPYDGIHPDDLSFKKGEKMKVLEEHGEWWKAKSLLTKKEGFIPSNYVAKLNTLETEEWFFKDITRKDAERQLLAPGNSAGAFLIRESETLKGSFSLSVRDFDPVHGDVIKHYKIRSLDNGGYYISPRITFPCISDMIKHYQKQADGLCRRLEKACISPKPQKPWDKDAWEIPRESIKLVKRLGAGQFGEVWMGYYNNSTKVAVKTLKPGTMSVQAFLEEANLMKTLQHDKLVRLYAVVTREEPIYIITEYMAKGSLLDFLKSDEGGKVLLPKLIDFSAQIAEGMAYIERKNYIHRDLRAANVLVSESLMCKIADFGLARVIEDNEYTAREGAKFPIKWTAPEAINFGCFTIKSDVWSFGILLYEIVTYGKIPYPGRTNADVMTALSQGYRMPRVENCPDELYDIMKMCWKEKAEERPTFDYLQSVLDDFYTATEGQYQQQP
Experiment [5] has as its target IGF1R (Homo sapiens, UniProt P08069). The note with it: read-out: %Inh IGF1R.
The target of experiment [6] is CSNK1E (Homo sapiens, UniProt P49674). The note with it: read-out: %Inh CSNK1E.
CSNK1E, sequence (P49674 whole entry): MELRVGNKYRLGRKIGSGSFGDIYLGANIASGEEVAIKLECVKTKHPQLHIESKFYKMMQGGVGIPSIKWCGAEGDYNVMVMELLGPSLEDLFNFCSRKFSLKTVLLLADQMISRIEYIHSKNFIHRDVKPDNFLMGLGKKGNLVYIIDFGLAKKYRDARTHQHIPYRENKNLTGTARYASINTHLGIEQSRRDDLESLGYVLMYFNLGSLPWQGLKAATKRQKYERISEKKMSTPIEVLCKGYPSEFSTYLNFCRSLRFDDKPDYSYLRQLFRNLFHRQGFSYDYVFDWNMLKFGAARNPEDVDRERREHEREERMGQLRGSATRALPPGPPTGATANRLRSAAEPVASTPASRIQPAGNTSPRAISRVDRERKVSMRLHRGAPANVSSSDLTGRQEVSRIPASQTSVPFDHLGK
Experiment [7] deals with T2, DLK (Homo sapiens, UniProt Q12852).
T2 sequence (Q12852 1-859): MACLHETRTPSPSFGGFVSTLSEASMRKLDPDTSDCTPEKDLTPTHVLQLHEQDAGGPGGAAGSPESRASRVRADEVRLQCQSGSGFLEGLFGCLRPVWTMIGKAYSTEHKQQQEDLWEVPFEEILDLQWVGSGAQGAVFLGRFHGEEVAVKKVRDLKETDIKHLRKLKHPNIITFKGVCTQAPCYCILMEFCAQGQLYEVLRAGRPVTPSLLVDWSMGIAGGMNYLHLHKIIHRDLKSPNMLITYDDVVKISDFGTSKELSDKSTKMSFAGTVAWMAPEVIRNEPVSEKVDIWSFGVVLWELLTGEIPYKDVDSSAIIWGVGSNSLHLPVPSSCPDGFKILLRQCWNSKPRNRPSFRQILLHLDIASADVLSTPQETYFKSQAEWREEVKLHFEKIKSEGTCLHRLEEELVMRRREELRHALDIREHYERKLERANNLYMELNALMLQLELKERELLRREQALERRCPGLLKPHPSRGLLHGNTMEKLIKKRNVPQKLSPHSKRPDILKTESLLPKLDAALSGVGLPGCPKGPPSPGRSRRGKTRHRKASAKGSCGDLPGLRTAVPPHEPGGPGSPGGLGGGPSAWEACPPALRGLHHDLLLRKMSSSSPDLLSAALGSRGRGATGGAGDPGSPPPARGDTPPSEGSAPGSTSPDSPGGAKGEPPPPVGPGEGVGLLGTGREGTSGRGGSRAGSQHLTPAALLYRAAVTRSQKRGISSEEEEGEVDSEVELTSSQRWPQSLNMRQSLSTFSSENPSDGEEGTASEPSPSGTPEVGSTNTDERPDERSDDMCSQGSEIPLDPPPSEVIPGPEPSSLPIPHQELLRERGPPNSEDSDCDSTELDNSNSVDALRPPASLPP
Conditions: read-out: %Inh DLK.

Experiment [8] concerns the target JNK3 (Homo sapiens, UniProt P53779). The note with it: read-out: %Inh JNK3.

GSK3A, sequence (P49840 whole entry): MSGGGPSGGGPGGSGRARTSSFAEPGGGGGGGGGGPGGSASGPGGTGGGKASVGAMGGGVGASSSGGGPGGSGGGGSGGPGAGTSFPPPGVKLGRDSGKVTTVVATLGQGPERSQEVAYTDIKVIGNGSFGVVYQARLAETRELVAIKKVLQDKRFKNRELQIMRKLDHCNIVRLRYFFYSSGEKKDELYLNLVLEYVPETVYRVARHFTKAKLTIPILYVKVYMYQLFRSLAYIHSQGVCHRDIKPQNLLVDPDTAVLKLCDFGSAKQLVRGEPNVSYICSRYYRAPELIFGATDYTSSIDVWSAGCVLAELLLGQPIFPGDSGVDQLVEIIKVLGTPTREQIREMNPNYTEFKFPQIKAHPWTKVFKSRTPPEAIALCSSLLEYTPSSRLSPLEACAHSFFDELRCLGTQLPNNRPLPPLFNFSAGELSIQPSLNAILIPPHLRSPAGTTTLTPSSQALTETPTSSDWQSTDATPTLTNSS
IGF1R, sequence (P08069 31-1367): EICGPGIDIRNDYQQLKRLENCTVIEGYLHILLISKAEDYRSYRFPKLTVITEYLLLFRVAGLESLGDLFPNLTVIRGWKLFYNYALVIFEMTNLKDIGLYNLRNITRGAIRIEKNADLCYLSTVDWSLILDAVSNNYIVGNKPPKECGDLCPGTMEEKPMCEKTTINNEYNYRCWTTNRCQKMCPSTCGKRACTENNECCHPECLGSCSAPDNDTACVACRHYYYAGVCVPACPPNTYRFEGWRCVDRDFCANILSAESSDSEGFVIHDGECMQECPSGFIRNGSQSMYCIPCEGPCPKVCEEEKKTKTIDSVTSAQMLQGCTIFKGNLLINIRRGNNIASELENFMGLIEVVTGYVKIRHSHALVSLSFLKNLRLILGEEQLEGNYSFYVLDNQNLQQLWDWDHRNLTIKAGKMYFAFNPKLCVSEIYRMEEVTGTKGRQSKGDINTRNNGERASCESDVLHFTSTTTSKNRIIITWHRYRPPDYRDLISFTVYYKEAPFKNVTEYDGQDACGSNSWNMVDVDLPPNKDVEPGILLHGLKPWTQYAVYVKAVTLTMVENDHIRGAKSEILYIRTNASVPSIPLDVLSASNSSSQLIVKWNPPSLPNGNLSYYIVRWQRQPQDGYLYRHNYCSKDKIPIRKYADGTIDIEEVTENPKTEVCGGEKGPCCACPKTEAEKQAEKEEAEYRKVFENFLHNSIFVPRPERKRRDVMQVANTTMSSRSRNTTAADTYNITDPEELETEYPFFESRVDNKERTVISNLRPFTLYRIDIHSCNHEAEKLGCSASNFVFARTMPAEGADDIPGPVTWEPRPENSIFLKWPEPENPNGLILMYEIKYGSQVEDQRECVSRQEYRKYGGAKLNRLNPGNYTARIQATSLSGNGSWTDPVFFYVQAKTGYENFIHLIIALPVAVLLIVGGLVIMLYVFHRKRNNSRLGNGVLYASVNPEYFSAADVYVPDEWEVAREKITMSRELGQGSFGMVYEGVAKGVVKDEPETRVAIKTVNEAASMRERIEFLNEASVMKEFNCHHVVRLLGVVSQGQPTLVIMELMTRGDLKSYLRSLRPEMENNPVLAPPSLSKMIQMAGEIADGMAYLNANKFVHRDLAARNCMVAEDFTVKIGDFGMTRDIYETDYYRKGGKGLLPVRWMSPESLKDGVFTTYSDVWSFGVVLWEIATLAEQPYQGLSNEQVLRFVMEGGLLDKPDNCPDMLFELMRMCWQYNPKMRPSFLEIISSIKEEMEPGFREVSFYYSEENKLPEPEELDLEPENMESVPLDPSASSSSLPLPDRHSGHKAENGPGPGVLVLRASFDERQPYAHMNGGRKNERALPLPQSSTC
JNK3, sequence (P53779 whole entry): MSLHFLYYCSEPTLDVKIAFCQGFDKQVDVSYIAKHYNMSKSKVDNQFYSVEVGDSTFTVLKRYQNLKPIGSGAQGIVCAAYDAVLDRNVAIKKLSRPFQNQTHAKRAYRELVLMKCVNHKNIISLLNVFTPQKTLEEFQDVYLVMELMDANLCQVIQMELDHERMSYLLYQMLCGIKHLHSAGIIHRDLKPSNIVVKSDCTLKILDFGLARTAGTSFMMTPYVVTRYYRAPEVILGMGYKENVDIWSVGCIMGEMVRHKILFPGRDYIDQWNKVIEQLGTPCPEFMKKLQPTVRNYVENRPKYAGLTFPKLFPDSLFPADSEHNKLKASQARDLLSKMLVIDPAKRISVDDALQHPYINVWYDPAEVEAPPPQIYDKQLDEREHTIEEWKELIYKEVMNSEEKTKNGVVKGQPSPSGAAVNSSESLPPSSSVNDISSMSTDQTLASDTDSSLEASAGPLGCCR

As to `COc1cccc(OC)c1C(=O)Nc1cccc(-c2nn3ccccc3c2-c2ccnc(Nc3cccc(F)c3)n2)c1` [UNC10225310A], the inhibition at 1 µM in experiment [1] was determined as 0%; in experiment [2], 24%; in experiment [3] it was 24%; in experiment [4], 8%; in experiment [5], 7%; in experiment [6] it was 64%. Moreover, the inhibition at 1 µM in experiment [7] and in experiment [8] was 0% each time.
Regarding `O=c1cc(N2CCOCC2)nc2n(Cc3cccc(Cl)c3Cl)c(C3CC3)nn12` [UNC10225469A], the inhibition at 1 µM in experiment [1] was 0%; in experiment [2], 4%; in experiment [3], 0%; in experiment [4], 0%; in experiment [5] it was 0%; in experiment [6], 11%. The inhibition at 1 µM in experiment [7] and in experiment [8] was 0% throughout.
On to `Cn1cc(-c2cnc(N)c3c(-c4ccc5c(c4)CCN5C(=O)Cc4ccccc4)csc23)cn1` [UNC10225012A], for which the inhibition at 1 µM in experiment [1] was determined as 0%; in experiment [2], 5%; in experiment [3], 0%; in experiment [4], 65%; in experiment [5], 0%; in experiment [6], 1%. Further, the inhibition at 1 µM in experiment [7] and in experiment [8] was 0% throughout.
Take `CS(=O)(=O)Cc1ccc(Nc2nccc(-c3c(-c4cccc(NC(=O)C5CCCCC5)c4)nn4ncccc34)n2)cc1` [UNC10225159A]: the inhibition at 1 µM in experiment [1] is 25%; in experiment [2], 0%; in experiment [3], 0%; in experiment [4], 16%; in experiment [5] it was 68%; in experiment [6], 20%. Moreover, the inhibition at 1 µM in experiment [7] came to 41%; in experiment [8], 36%.
`Cc1ccc(NC(=O)Nc2cccc(C(F)(F)F)c2)cc1` [UNC10225187A]: the inhibition at 1 µM in experiment [1], in experiment [2], in experiment [3], in experiment [4], in experiment [5] and in experiment [6] was 0% in each case. The results for the inhibition at 1 µM in experiment [7] and in experiment [8] were 0% and 46%, respectively.
